Laboratory results reported in PMC6689975, “Novel Cell Wall Antifungals Reveal a Special Synergistic Activity in pbr1 Mutants Resistant to the Glucan Synthesis Antifungals Papulacandins and Echinocandins” (Frontiers in Microbiology, 2019).
Values after ≈ are worked out from the molar mass of the structure shown.

These compounds were tested on C. albicans wild-type (assay: microbe, parasite or virus in culture). Details: Candida albicans, 48 h, read-out: MIC.
Parameters: species or system whole yeast cells; macro tube broth dilution MIC in YEPD at 30 C, visual clearness of medium
Protocol: (§1) Standard YEPD (Yeast Extract, Peptone, Dextrose) ([Sherman, 1990]), YEPD+S (YEPD with 1.2M sorbitol), YES (Yeast Extract, Dextrose and Supplements of Adenine, Histidine, Leucine, Uracil and Lysine) ([Alfa et al., 1993]) and YES+S (YES with 1.2 M sorbitol) ([Ribas et al., 1991]; [Ishiguro et al., 1997]), media were used for determination of MIC values of the tested compounds. A stock solution of 10 mg/ml of each tested compounds was prepared in DMSO and serial dilutions in DMSO were prepared. The final concentration of DMSO was 2% in the YEPD medium. […] The serial dilutions of compounds were dispensed into test tubes with 1 ml of YEPD or YEPD+S to make final concentrations of 200, 100, 50, 25, 12.5, 6.26, 3.125, 1.6, 0.8 and 0.4 μg/ml. The tested yeast strains were previously grown in YEPD, YEPD+S, YES or YES+S agar plates at 30°C for 48 h. For inoculation of YEPD or YEPD+S macro test tubes a suspension of tested fungus was produced with 10^5 cfu/ml (cfu - colony forming unit). 10 μl of suspension was used for inoculation of each tube. After 48 h incubation at 30°C the tubes were checked. The MIC value is the lowest concentration of the tested compound that could inhibit the fungal growth and the medium remained clear. From each tube 10 μl culture was plated on YEPD agar medium to check the contamination. The MIC tests were carried out in three parallels. The screening of the first generation of isochromanones was carried out in YEPD and YEPD+S media (1E-16E). The fungal strains analyzed are: C. albicans wild-type ATCC 26555, SC5314 and ATCC 90028, S. cerevisiae wild-type CVX12-3A and pbr1-1 mutant, and S. pombe wild-type (972h^–), pbr1-8 mutant and pbr1-6 mutant. The bold numbers in Tables 4–6 indicate the more efficient compounds. […] The weak or moderate efficacy against the C. albicans wild-type strains was observed by some substances (3E, 4Z, 5Z, 10E, 15, and 16E). The efficiency toward the S. pombe pbr1-6 mutant strain was the highest inhibitory activity, except 7E, 11E, 12 and 14E. […] As regards the other S. pombe pbr1-8 mutant strain, the antifungal activity of the tested compounds was slightly lower, but the substances with the best activity are partly identical to the best compounds mentioned with pbr1-6, (i.e., 1E, 3E, 4Z, 5Z).
For `Cn1cccc1/C=C1\C(=O)OCc2ccccc21` [4Z], the MIC was 25 µg/mL (≈ 104 µM).
Work on `O=C1OCc2ccccc2/C1=C/c1ccc[nH]1` [5Z] yielded an MIC of 100 µg/mL (≈ 444 µM).
`O=C1OCc2ccccc2/C1=C\c1ccccc1Cl` [8E] was tested, and the MIC was over 200 µg/mL.
Compound `COc1cccc(/C=C2/C(=O)OCc3ccccc32)c1OC` [9E] has an MIC of 100 µg/mL (≈ 337 µM).
`O=C1OCc2ccccc2/C1=C\c1ccccc1[N+](=O)[O-]` [11E] gave an MIC of over 200 µg/mL.

The compounds below were run on T1, S. cerevisiae wild-type CVX12-3A (assay: microbe, parasite or virus in culture). Details: Saccharomyces cerevisiae, 48 h, read-out: MIC.
T1 construct: CVX12-3A
Parameters: species or system whole yeast cells; macro tube broth dilution MIC in YEPD at 30 C, visual clearness of medium
Protocol: as §1
Compound `Cn1cccc1/C=C1\C(=O)OCc2ccccc21` [4Z] has an MIC of 12.5 µg/mL (≈ 52.2 µM).
Compound `O=C1OCc2ccccc2/C1=C/c1ccc[nH]1` [5Z] has an MIC of 100 µg/mL (≈ 444 µM).
`O=C1OCc2ccccc2/C1=C\c1ccccc1Cl` [8E] gave an MIC of 100 µg/mL (≈ 369 µM).
In the case of `COc1cccc(/C=C2/C(=O)OCc3ccccc32)c1OC` [9E], the MIC was 100 µg/mL (≈ 337 µM).
For `O=C1OCc2ccccc2/C1=C\c1ccccc1[N+](=O)[O-]` [11E], the MIC was 200 µg/mL (≈ 711 µM).

These compounds were tested on T2, S. pombe wild-type 972 h- (assay: microbe, parasite or virus in culture). Details: Schizosaccharomyces pombe, 48 h, read-out: MIC.
T2 construct: 972 h-
Parameters: species or system whole yeast cells; macro tube broth dilution MIC in YEPD at 30 C, visual clearness of medium
Protocol: as §1
For `Cn1cccc1/C=C1\C(=O)OCc2ccccc21` [4Z], the MIC was 25 µg/mL (≈ 104 µM).
In the case of `O=C1OCc2ccccc2/C1=C/c1ccc[nH]1` [5Z], the MIC was 25 µg/mL (≈ 111 µM).
In the case of `O=C1OCc2ccccc2/C1=C\c1ccccc1Cl` [8E], the MIC was 50 µg/mL (≈ 185 µM).
With `COc1cccc(/C=C2/C(=O)OCc3ccccc32)c1OC` [9E] the MIC was 50 µg/mL (≈ 169 µM).
With `O=C1OCc2ccccc2/C1=C\c1ccccc1[N+](=O)[O-]` [11E] the MIC was 100 µg/mL (≈ 356 µM).

System: C. albicans wild-type
Assay: microbe, parasite or virus in culture
Parameters: species or system whole yeast cells; macro tube broth dilution MIC in YEPD at 30 C, visual clearness of medium
Details: Candida albicans, 48 h, read-out: MIC
Remark: another data set of the same source
Protocol: as §1
`Cn1cccc1/C=C1\C(=O)OCc2ccccc21` [4Z] gave an MIC of 50 µg/mL (≈ 209 µM).
`O=C1OCc2ccccc2/C1=C/c1ccc[nH]1` [5Z] was tested, and the MIC was 100 µg/mL (≈ 444 µM).
`O=C1OCc2ccccc2/C1=C\c1ccccc1Cl` [8E] was tested, and the MIC was over 200 µg/mL.
`COc1cccc(/C=C2/C(=O)OCc3ccccc32)c1OC` [9E] showed an MIC of 100 µg/mL (≈ 337 µM).
`O=C1OCc2ccccc2/C1=C\c1ccccc1[N+](=O)[O-]` [11E] gave an MIC of over 200 µg/mL.

System: C. albicans wild-type
Assay: microbe, parasite or virus in culture
Parameters: species or system whole yeast cells; macro tube broth dilution MIC in YEPD at 30 C, visual clearness of medium
Details: Candida albicans, 48 h, read-out: MIC
Remark: another data set of the same source
Protocol: as §1
For `Cn1cccc1/C=C1\C(=O)OCc2ccccc21` [4Z], the MIC was 12.5 µg/mL (≈ 52.2 µM).
Compound `O=C1OCc2ccccc2/C1=C/c1ccc[nH]1` [5Z] has an MIC of 200 µg/mL (≈ 888 µM).
For `O=C1OCc2ccccc2/C1=C\c1ccccc1Cl` [8E], the MIC was 200 µg/mL (≈ 739 µM).
`COc1cccc(/C=C2/C(=O)OCc3ccccc32)c1OC` [9E] gave an MIC of 100 µg/mL (≈ 337 µM).
`O=C1OCc2ccccc2/C1=C\c1ccccc1[N+](=O)[O-]` [11E] showed an MIC of over 200 µg/mL.

Each compound was assayed on C. albicans wild-type (assay: microbe, parasite or virus in culture). Details: Candida albicans, read-out: MIC.
Parameters: species or system whole yeast cells; micro-culture broth dilution MIC in YES at 30 C, turbidity, complete growth inhibition
Protocol: (§2) Standard YEPD (Yeast Extract, Peptone, Dextrose) ([Sherman, 1990]), YEPD+S (YEPD with 1.2M sorbitol), YES (Yeast Extract, Dextrose and Supplements of Adenine, Histidine, Leucine, Uracil and Lysine) ([Alfa et al., 1993]) and YES+S (YES with 1.2 M sorbitol) ([Ribas et al., 1991]; [Ishiguro et al., 1997]), media were used for determination of MIC values of the tested compounds. A stock solution of 10 mg/ml of each tested compounds was prepared in DMSO and serial dilutions in DMSO were prepared. The final concentration of DMSO was 2% in the YEPD medium. […] The serial dilutions of compounds were dispensed into test tubes with 1 ml of YEPD or YEPD+S to make final concentrations of 200, 100, 50, 25, 12.5, 6.26, 3.125, 1.6, 0.8 and 0.4 μg/ml. The tested yeast strains were previously grown in YEPD, YEPD+S, YES or YES+S agar plates at 30°C for 48 h. Micro-culture assays of large numbers of samples were analyzed as described) ([Martins et al., 2011]). Essentially early log-phase cells were grown in YEPD, YEPD+S, YES or YES+S (1.2 M sorbitol) medium at 30°C, and diluted to cell density of 4 X 10^6 cells/ml in YEPD, YEPD+S, YES or YES+S medium and aliquots of 100 μl were dispensed into each small test tube (3 ml test tube size). Then, another 100 μl of YEPD, YEPD+S, YES or YES+S with the corresponding dilution of each compound at 2X concentration (4% DMSO) was added. The final volume was 200 μl, with the cells diluted to of 2 X 10^6 cells/ml and each compound diluted to 1X final concentration, containing increasing concentrations of antifungal (0, 1, 2, 5, 10, 20, 50, 100 and 200 μg/ml) or an equivalent volume of solvent (2% DMSO). The cells were grown at 30°C in an orbital roller and turbidity was analyzed after 24 and 48 h of incubation. The MIC was determined as the minimal concentration of tested compound that produced complete cell growth inhibition and kept the medium clear. The MIC values were calculated from at least three independent experiments. Next, the first generation of isochromanones (1E-16E) was also screened in YES medium (Table 5) and exerted a weaker antifungal potency than in YEPD medium and also than the second family of isochromanones in YES medium (17E-30E) (Table 6). The strains are partly different from the previously mentioned ones (Tables 5, 6) analyzing two wild type C. albicans strains because they behaved similarly in YEPD. It is remarkable that there was no effect against either the C. albicans, the S. cerevisiae, or the S. pombe wild-type strains, except with 30E.
For `Cn1cccc1/C=C1\C(=O)OCc2ccccc21` [4Z], the MIC was over 200 µg/mL.
Work on `O=C1OCc2ccccc2/C1=C/c1ccc[nH]1` [5Z] yielded an MIC of over 200 µg/mL.
`O=C1OCc2ccccc2/C1=C\c1ccccc1Cl` [8E] was tested, and the MIC was over 200 µg/mL.
For `COc1cccc(/C=C2/C(=O)OCc3ccccc32)c1OC` [9E], the MIC was over 200 µg/mL.
`O=C1OCc2ccccc2/C1=C\c1ccccc1[N+](=O)[O-]` [11E] was tested, and the MIC was over 200 µg/mL.
With `O=C1OCc2ccccc2/C1=C\c1ccc([N+](=O)[O-])cc1` [17E, E-4-[(4′-Nitrophenyl)Methylene]-3-Isochromanone] the MIC was over 200 µg/mL.

The compounds below were run on T1, S. cerevisiae wild-type CVX12-3A (assay: microbe, parasite or virus in culture). Details: Saccharomyces cerevisiae, read-out: MIC.
Parameters: species or system whole yeast cells; micro-culture broth dilution MIC in YES at 30 C, turbidity, complete growth inhibition
Protocol: as §2
`Cn1cccc1/C=C1\C(=O)OCc2ccccc21` [4Z] gave an MIC of over 200 µg/mL.
`O=C1OCc2ccccc2/C1=C/c1ccc[nH]1` [5Z] gave an MIC of over 200 µg/mL.
`O=C1OCc2ccccc2/C1=C\c1ccccc1Cl` [8E] was tested, and the MIC was over 200 µg/mL.
In the case of `COc1cccc(/C=C2/C(=O)OCc3ccccc32)c1OC` [9E], the MIC was over 200 µg/mL.
Work on `O=C1OCc2ccccc2/C1=C\c1ccccc1[N+](=O)[O-]` [11E] yielded an MIC of over 200 µg/mL.
In the case of `O=C1OCc2ccccc2/C1=C\c1ccc([N+](=O)[O-])cc1` [17E, E-4-[(4′-Nitrophenyl)Methylene]-3-Isochromanone], the MIC was 200 µg/mL (≈ 711 µM).

The compounds below were run on T2, S. pombe wild-type 972 h- (assay: microbe, parasite or virus in culture). Details: Schizosaccharomyces pombe, read-out: MIC.
Parameters: species or system whole yeast cells; micro-culture broth dilution MIC in YES at 30 C, turbidity, complete growth inhibition
Protocol: as §2
`Cn1cccc1/C=C1\C(=O)OCc2ccccc21` [4Z] was tested, and the MIC was over 200 µg/mL.
Work on `O=C1OCc2ccccc2/C1=C/c1ccc[nH]1` [5Z] yielded an MIC of over 200 µg/mL.
For `O=C1OCc2ccccc2/C1=C\c1ccccc1Cl` [8E], the MIC was over 200 µg/mL.
`COc1cccc(/C=C2/C(=O)OCc3ccccc32)c1OC` [9E] was tested, and the MIC was over 200 µg/mL.
For `O=C1OCc2ccccc2/C1=C\c1ccccc1[N+](=O)[O-]` [11E], the MIC was over 200 µg/mL.
`O=C1OCc2ccccc2/C1=C\c1ccc([N+](=O)[O-])cc1` [17E, E-4-[(4′-Nitrophenyl)Methylene]-3-Isochromanone] gave an MIC of over 200 µg/mL.

System: C. albicans wild-type
Assay: microbe, parasite or virus in culture
Parameters: species or system whole yeast cells; micro-culture broth dilution MIC in YES at 30 C, turbidity, complete growth inhibition
Details: Candida albicans, read-out: MIC
Remark: another data set of the same source
Protocol: as §2
Work on `O=C1OCc2ccccc2/C1=C\c1ccc([N+](=O)[O-])cc1` [17E, E-4-[(4′-Nitrophenyl)Methylene]-3-Isochromanone] yielded an MIC of over 200 µg/mL.
